From US10166237B2, “Compounds and methods for inducing chondrogenesis” (The Scripps Research Institute, priority 2011, dated 2019)

The compounds below were run on human mesenchymal stem cells (hMSCs) (assay: chondrogenic nodule formation by hMSCs (high throughput screen)). Conditions: not given.
Type: cell-based
Method: The primary screening assay was based upon the development of chondrogenic nodules. Chondrocytes can grow in monolayer in vitro, but to more closely mimic their native environment in the joint, the cells are routinely cultured in non-adherent conditions such as in pellet cultures or alginate bead suspensions.
In the actual screen of a library of 22,000 structurally diverse heterocycles, 10^4 primary hMSCs were plated in 384 well plates in serum free DMEM. The cells were treated with 5 μM of each compound and incubated for 4 days. […] To facilitate high throughput imaged-based detection, the chondrogenic nodules were stained with […]. The Nile Red stained nodules were quantified on an Acumen eX3 (high content imaging device) by excitation with a 488 laser for rapid detection of the nodules.
Primary hMSCs grown in a 96 well Greiner plates (50,000/well) were incubated for 4 days in the presence of the 5 uM of each DMSO or 100 nM of PRO1. On day 4, the cells were fixed with 4% formalin for 10 minutes, washed and stained with 1 μg/ml of Rhodamine B for 2 hours at room temperature.

Structure (SMILES)	Activity (chondrogenic nodules formed in % of cells)
N#CC1CCC(NC(=O)c2ccccc2C(=O)O)CC1 (centres unmarked) [Compound N30]	** (chondrogenic nodules formed in at least 25% but less than 50% of cells)
N#Cc1ccc(NC(=O)c2ccncc2C(=O)O)cc1 [Compound B19]	*** (chondrogenic nodules formed in at least 50% but less than 75% of cells)
N#Cc1ccc(-c2c[nH]c3c(C(=O)O)cccc23)cc1 [MS21]	*** (chondrogenic nodules formed in at least 50% but less than 75% of cells)
NC(=O)NCc1ccc(NC(=O)c2ccccc2C(=O)O)cc1 [PM10]	** (chondrogenic nodules formed in at least 25% but less than 50% of cells)
O=C(O)c1ccc(N2C(=O)c3ccccc3C2=O)cc1 [MS29]	*** (chondrogenic nodules formed in at least 50% but less than 75% of cells)
N#Cc1ccc(NC(=O)c2c(C(=O)O)cccc2C(=O)O)cc1 [Compound B12]	** (chondrogenic nodules formed in at least 25% but less than 50% of cells)
O=C(O)c1cccc(NC(=O)c2ccccc2C(=O)O)c1 [Compound N14]	** (chondrogenic nodules formed in at least 25% but less than 50% of cells)
O=C(O)c1ccccc1C(=O)Nc1cnc(-c2ccccc2)s1 [Compound N45]	*** (chondrogenic nodules formed in at least 50% but less than 75% of cells)
NS(=O)(=O)c1cccc(NC(=O)c2ccccc2C(=O)O)c1 [Compound N17]	** (chondrogenic nodules formed in at least 25% but less than 50% of cells)
O=C(O)c1ccccc1C(=O)Nc1ccc(COc2ccccc2)cc1 [PM02]	** (chondrogenic nodules formed in at least 25% but less than 50% of cells)
N#Cc1ccc(NC(=O)c2ccccc2S(N)(=O)=O)cc1 [Compound A23]	** (chondrogenic nodules formed in at least 25% but less than 50% of cells)
O=C(O)c1ccccc1NC(=O)c1ccccc1C(=O)O [Compound N13]	** (chondrogenic nodules formed in at least 25% but less than 50% of cells)
O=C(O)c1ccccc1C(=O)Nc1ccc(-c2ccccn2)cc1 [PM05]	** (chondrogenic nodules formed in at least 25% but less than 50% of cells)
N#Cc1ccc(N2Cc3ccccc3C2=O)cc1 [MS26]	** (chondrogenic nodules formed in at least 25% but less than 50% of cells)
O=C(O)c1ccccc1C(=O)Nc1ccccc1CO [Compound N20]	** (chondrogenic nodules formed in at least 25% but less than 50% of cells)
N#Cc1ccc(NC(=O)c2ccc(C(=O)O)cc2C(=O)O)cc1 [Compound B10]	** (chondrogenic nodules formed in at least 25% but less than 50% of cells)
N#Cc1cccc2[nH]c(-c3ccccc3C(=O)O)nc12 [Compound R01]	** (chondrogenic nodules formed in at least 25% but less than 50% of cells)
O=C(O)c1ccccc1C(=O)Nc1cccc(OC(F)F)c1 [Compound N05]	** (chondrogenic nodules formed in at least 25% but less than 50% of cells)
CS(=O)(=O)Nc1ccccc1C(=O)Nc1ccc(C#N)cc1 [Compound A13]	** (chondrogenic nodules formed in at least 25% but less than 50% of cells)
O=C(O)c1ccccc1C(=O)Nc1ncccn1 [Compound N50]	** (chondrogenic nodules formed in at least 25% but less than 50% of cells)

Structure (SMILES)	Activity (chondrogenic nodules formed in % of cells)
O=C(O)c1ccc2c(c1)C(=O)N(Cc1ccccc1C(=O)O)C2=O [MS39]	*** (chondrogenic nodules formed in at least 50% but less than 75% of cells)
O=C(O)c1ccccc1C(=O)Nc1ncco1 [Compound N35]	** (chondrogenic nodules formed in at least 25% but less than 50% of cells)
CC(=O)c1cccc(NC(=O)c2ccccc2C(=O)O)c1 [Compound N08]	**** (chondrogenic nodules formed in at least 75% of cells)
N#Cc1ccc(N2C(=O)c3ccccc3C2=O)cc1 [MS28]	** (chondrogenic nodules formed in at least 25% but less than 50% of cells)
O=C(O)c1ccccc1C(=O)Nc1ccncc1 [Compound N01]	*** (chondrogenic nodules formed in at least 50% but less than 75% of cells)
N#Cc1ccc(NC(=O)c2ccccc2CC(=O)O)cc1 [Compound A06]	*** (chondrogenic nodules formed in at least 50% but less than 75% of cells)
N#Cc1ccccc1CNC(=O)c1ccccc1C(=O)O [MS04]	** (chondrogenic nodules formed in at least 25% but less than 50% of cells)
O=C(O)c1ccccc1C(=O)Nc1cncs1 [Compound N42]	*** (chondrogenic nodules formed in at least 50% but less than 75% of cells)
O=C(O)c1ccccc1CNC(=O)c1ccccc1C(=O)O [MS01]	*** (chondrogenic nodules formed in at least 50% but less than 75% of cells)
N#Cc1ccc2nc(-c3ccccc3C(=O)O)sc2c1 [Compound R06-1]	** (chondrogenic nodules formed in at least 25% but less than 50% of cells)
O=C(O)c1ccccc1C(=O)Nc1ccc(S(=O)(=O)O)cc1 [PA07]	*** (chondrogenic nodules formed in at least 50% but less than 75% of cells)
N#Cc1cccc(NC(=O)c2ccccc2C(=O)O)c1 [Compound N19]	*** (chondrogenic nodules formed in at least 50% but less than 75% of cells)
N#Cc1ccc(NC(=O)Nc2ccccc2C(=O)O)cc1 [Compound R10]	** (chondrogenic nodules formed in at least 25% but less than 50% of cells)
NC(=O)c1ccccc1NC(=O)c1ccccc1C(=O)O [Compound N10]	** (chondrogenic nodules formed in at least 25% but less than 50% of cells)
O=C(O)c1ccccc1C(=O)NC1CCC(C(=O)O)CC1 (centres unmarked) [Compound N31]	** (chondrogenic nodules formed in at least 25% but less than 50% of cells)
O=C(O)c1cccc(CNC(=O)c2ccccc2C(=O)O)c1 [MS02]	** (chondrogenic nodules formed in at least 25% but less than 50% of cells)
O=C(O)c1ccccc1C(=O)Nc1nc(-c2ccccc2)co1 [Compound N38]	** (chondrogenic nodules formed in at least 25% but less than 50% of cells)
N#Cc1ccc(NC(=O)c2cccnc2C(=O)O)cc1 [Compound B20]	** (chondrogenic nodules formed in at least 25% but less than 50% of cells)
N#Cc1ccc(/C=C/C(=O)c2ccccc2C(=O)O)cc1 [MS15, 2-[(2E)-3-(4-cyanophenyl)prop-2-enoyl]benzoic acid]	*** (chondrogenic nodules formed in at least 50% but less than 75% of cells)
O=C(O)c1ccccc1C(=O)Nc1ncc[nH]1 [Compound N34]	** (chondrogenic nodules formed in at least 25% but less than 50% of cells)

Same assay, conditions: Homo sapiens, Mesenchymal stem cells; first value of the cell (before the slash); read-out: CHONDROGENIC μM EC50

EC50 [µM]	Structure (SMILES)
> 10	N#Cc1ccccc1NC(=O)c1ccccc1C(=O)O [LK13b]
